The text below walks through data of article PMC4176318 (ACS Chemical Neuroscience, 2014).

The assay relates to C57Bl/6J mice. Put plainly: Tail suspension test. The format is in vivo, mouse. To be noted: 10 mg/kg i.p., 30 min prior to testing, 6 min trial; saline 143.7 ± 3.3 s.

In the case of `CN(C)CCCC1(c2ccc(F)cc2)OCc2cc(C#N)ccc21` (centres unmarked) [citalopram], the “immobility in TST” value worked out at 29.7 ± 14.5 s. In the case of `COCCCC/C(=N\OCCN)c1ccc(C(F)(F)F)cc1` [fluvoxamine], the “immobility in TST” value is given as 59.0 ± 12.5 s.
